Patent EP0244595A2, “Dihydropyridine derivatives, process for their preparation and their use as pharmaceutical compounds” (Byk Gulden Lomberg Chemische Fabrik GmbH, priority 1986, dated 1987)
Counter-ions that a name gives are not always drawn. Like-named read-outs stand apart in the source and are kept apart here.

Tested on: genetisch hypertonen Ratten
Assay: Antihypertensive effect (systolic blood pressure, tail cuff) in spontaneously hypertensive rats after oral dosing
Type: in vivo, Ratte
Conditions: Rattus norvegicus; for change in vivo at 25 µmol/kg: 25 µmol/kg p.o. once daily on four consecutive days; for change in vivo at 5 µmol/kg: 5 µmol/kg p.o. once daily on four consecutive days; for change in vivo at 10 µmol/kg: 10 µmol/kg p.o. once daily on four consecutive days
Source text: Die antihypertensive Wirksamkeit der erfindungsgemäßen Verbindungen kann am Modell der spontan hypertonen Ratte nachgewiesen werden.
Zur Bestimmung der antihypertensiven Wirkung werden die unten aufgeführten Verbindungen in den angegebenen Dosen an vier aufeinander folgenden Tagen an je 6 männlichen Ratten (Stamm SHR/N/Ibm/Bm, 250-350 g) mit genetisch bedingtem Hochdruck (systolischer Blutdruck > 180 mmHg) täglich einmal mittels Schlundsonde verabfolgt. Die Messung des Blutdrucks erfolgt jeweils 6 und gegebenenfalls 2 oder 24 Studnen nach Substanzgabe.
Die Blutdruckmessung wird in einer Wärmekammer bei 36°C vorgenommen, um eine bessere Durchblutung der Schwanzarterie zu erreichen. Hierzu werden die Tiere in perforierte Lochblechkäfige verbracht und 20 - 40 Min. nach Beginn der Aufwärmung gemessen. Zur Messung des systolischen arteriellen Drucks wird eine ringförmige Manschette mit aufblasbarer Gummimembran zur Unterbindung der Durchblutung und ein ringförmiger Piezokristallaufnehmer zur Erfassung der Pulswellen auf den Schwanz aufgeschoben. Nach erfolgter Unterbindung des Blutstroms in der Schwanzarterie wird der Manschettendruck kontinuierlich reduziert. Die Wiederkehr der Pulswellen bei Druckablassen wird automatisch als systolischer Blutdruck erkannt und ausgedruckt (Bühler, R. er al." Microprocessor-based automation of blood pressure measurement in the conscious rat. Proceedings of the 4th international symposium on rats with spontaneous hypertension and related studies, Rascher, R. et al. (Eds.), Schattauer Verlag, Stuttgart, New York, 1982, S. 410-413). Pulssignale und Druckverlauf werden zur Auswertung graphisch aufgezeichnet.
Zur Gewöhnung an den Meßvorgang werden die Tiere vor Substanzprüfung 14 Tage trainiert. In der zweiten Trainingswoche werden Blutdruck-Vorwerte erhoben. Tiergruppen, die Substanz erhalten, werden gegen eine Kontrollgruppe geprüft.
In der anschließenden Tabelle werden die untersuchten Verbindungen durch laufende Nummern gekennzeichnet, die mit den jewiligen Beispielnummern übereinstimmen.
Tabelle I gibt für die Vertreter der erfindungsgemäßen Verbindungen die prozentuale Senkung des Blutdrucks (BP) nach oraler Verabreichung bei der Ratte wieder.

[1] = 2h after dosing, mean of days 1+4, male SHR/N/Ibm/Bm rats, N=6, read-out: BP (% Änderung vs. Kontrolle), Mittelwert für Meßzeitpunkte: Stunden nach Gabe (Tage) 2h (1.+4.Tag)
[2] = 6h after dosing, mean of days 1-4, male SHR/N/Ibm/Bm rats, N=6, read-out: BP (% Änderung vs. Kontrolle), Mittelwert für Meßzeitpunkte: Stunden nach Gabe (Tage) 6h (1.-4.Tag)
[3] = 24h after dosing, mean of days 1+3, male SHR/N/Ibm/Bm rats, N=6, read-out: BP (% Änderung vs. Kontrolle), Mittelwert für Meßzeitpunkte: Stunden nach Gabe (Tage) 24h (1.+3.Tag)

| SMILES | change in vivo at 25 µmol/kg [1] | change in vivo at 25 µmol/kg [2] | change in vivo at 25 µmol/kg [3] | change in vivo at 10 µmol/kg [1] | change in vivo at 10 µmol/kg [2] | change in vivo at 10 µmol/kg [3] | further results |
| --- | --- | --- | --- | --- | --- | --- | --- |
| CC1=C(C(=O)OCCCN2CCC(c3ccccc3)CC2)C(c2cccc([N+](=O)[O-])c2)C(C(=O)O[C@@H]2C[C@H](C)CC[C@H]2C(C)C)=C(C)N1 (single isomer, unassigned) [Beispiel 2b, 1,4-Dihydro-2,6-dimethyl-4-(3-nitrophenyl)-pyridin-3,5-dicarbonsäure-3-(-)-menthyl-5-[3-(4-phenylpiperidyl-1)-propyl]-ester-hydrochlorid] | -36% | -33% | -16% | – | – | – | – |
| COc1ccccc1N1CCN(CCCOC(=O)C2=C(C)NC(C)=C(C(=O)O[C@@H]3C[C@H](C)CC[C@H]3C(C)C)C2c2cccc([N+](=O)[O-])c2)CC1 (single isomer, unassigned) [Beispiel 3b, 1,4-Dihydro-2,6-dimethyl-4-(3-nitrophenyl)-pyridin-3,5-dicarbonsäure-3-(-)-menthyl-5-{3-[4-(2-methoxyphenyl)-1-piperazinyl]-propyl}-ester-fumarat] | -23% | -36% | -17% | – | – | – | – |
| CC1=C(C(=O)OCCN2CCN(c3ccccc3)CC2)C(c2cccc([N+](=O)[O-])c2)C(C(=O)O[C@@H]2C[C@H](C)CC[C@H]2C(C)C)=C(C)N1 (single isomer, unassigned) [Beispiel 4b, 1,4-Dihydro-2,6-dimethyl-4-(3-nitrophenyl)-pyridin-3,5-dicarbonsäure-3-(-)-menthyl-5-[2-(4-phenyl-1-piperazinyl)-ethyl]ester-fumarat] | – | – | – | – | – | – | change in vivo at 5 µmol/kg [1]: -18%; change in vivo at 5 µmol/kg [2]: -16%; change in vivo at 5 µmol/kg [3]: 4% |
| CC1=C(C(=O)OCCN2CCN(c3ccccn3)CC2)C(c2cccc([N+](=O)[O-])c2)C(C(=O)O[C@@H]2C[C@H](C)CC[C@H]2C(C)C)=C(C)N1 (single isomer, unassigned) [Beispiel 5b, 1,4-Dihydro-2,6-dimethyl-4-(3-nitropheny)-pyridin-3,5-dicarbonsäure-3-(-)-menthyl-5-{2-[4-(2-pyridyl)-1-piperazinyl]-ethyl}-ester-fumarat] | – | – | – | -20% | -12% | -10% | – |
| CC1=C(C(=O)OCCCN(C)Cc2ccccc2)C(c2cccc([N+](=O)[O-])c2)C(C(=O)O[C@@H]2C[C@H](C)CC[C@H]2C(C)C)=C(C)N1 (single isomer, unassigned) [Beispiel 6] | -27% | -33% | -10% | – | – | – | – |
| CC1=C(C(=O)OCCCN2CCC(C(=O)c3ccc(F)cc3)CC2)C(c2cccc([N+](=O)[O-])c2)C(C(=O)O[C@@H]2C[C@H](C)CC[C@H]2C(C)C)=C(C)N1 (single isomer, unassigned) [Beispiel 7, 1,4-Dihydro-2,6-dimethyl-4-(3-nitrophenyl)-pyridin-3,5-dicarbonsäure-3-(-)-menthyl-5-{3-[4-(4-fluorbenzoyl)-piperidyl-1]-propyl}-ester-hydrochlorid] | – | – | – | -12% | -11% | 5% | – |
| COc1ccccc1N1CCN(CCOC(=O)C2=C(C)NC(C)=C(C(=O)O[C@@H]3C[C@H](C)CC[C@H]3C(C)C)C2c2cccc([N+](=O)[O-])c2)CC1 (single isomer, unassigned) [Beispiel 9, 1,4-Dihydro-2,6-dimethyl-4-(3-nitrophenyl)-pyridin-3,5-dicarbonsäure-3-(-)-menthyl-5-{2-[4-(2-methoxyphenyl)1-piperazinyl]-ethyl}-ester] | – | – | – | -22% | -32% | -4% | – |
| CC1=C(C(=O)OCCCN2CCN(c3ccccc3)CC2)C(c2cccc([N+](=O)[O-])c2)C(C(=O)O[C@@H]2C[C@H](C)CC[C@H]2C(C)C)=C(C)N1 (single isomer, unassigned) [Beispiel 10, 1,4-Dihydro-2,6-dimethyl-4-(3-nitrophenyl)-pyridin-3,5-dicarbonsäure-3-(-)-menthyl-5-[3-(4-phenyl-1-piperazinyl)-propyl]-ester-fumarat] | -34% | -34% | -6% | – | – | – | – |
| CCOc1ccccc1N1CCN(CCCOC(=O)C2=C(C)NC(C)=C(C(=O)O[C@@H]3C[C@H](C)CC[C@H]3C(C)C)C2c2cccc([N+](=O)[O-])c2)CC1 (single isomer, unassigned) [Beispiel 11, 1,4-Dihydro-2,6-dimethyl-4-(3-nitrophenyl)-pyridin-3,5-dicarbonsäure-3-(-)-menthyl-5-{3-[4-(2-ethoxyphenyl)-1-piperazinyl]-propyl}ester-fumarat] | – | – | – | -21% | -26% | -10% | – |
| CC1=C(C(=O)OCCCN2CCN(c3ccccn3)CC2)C(c2cccc([N+](=O)[O-])c2)C(C(=O)O[C@@H]2C[C@H](C)CC[C@H]2C(C)C)=C(C)N1 (single isomer, unassigned) [Beispiel 12, 1,4-Dihydro-2,6-dimethyl-4-(3-nitrophenyl)-pyridin-3,5-dicarbonsäure-3-(-)-menthyl-5-{3-[4-(2-pyridyl)-1-piperazinyl]-propyl}-ester-fumarat] | – | – | – | -17% | -20% | -1% | – |
| CC1=C(C(=O)OCCCN2CCN(C(c3ccccc3)c3ccccc3)CC2)C(c2cccc([N+](=O)[O-])c2)C(C(=O)O[C@@H]2C[C@H](C)CC[C@H]2C(C)C)=C(C)N1 (single isomer, unassigned) [Beispiel 13, 1,4-Dihydro-2.6-dimethyl-4-(3-nitrophenyl)-pyridin-3,5-dicarbonsäure-3-(-)-menthyl-5-[3-(4-benzhydryl-1-piperazinyl)-propyl]-ester-semifumarat] | -30% | -40% | -35% | – | – | – | – |
| CC1=C(C(=O)OCCCN2CCN(c3cccc(C(F)(F)F)c3)CC2)C(c2cccc([N+](=O)[O-])c2)C(C(=O)O[C@@H]2C[C@H](C)CC[C@H]2C(C)C)=C(C)N1 (single isomer, unassigned) [Beispiel 14, 1,4-Dihydro-2,6-dimethyl-4-(3-nitrophenyl)-pyridin-3,5-dicarbonsäure-3-(-)-menthyl-5-{3-[4-(3-trifluormethylphenyl}-1-piperazinyl]-propyl}-ester-fumarat] | -42% | -43% | -21% | – | – | – | – |
| COc1cccc(N2CCN(CCCOC(=O)C3=C(C)NC(C)=C(C(=O)O[C@@H]4C[C@H](C)CC[C@H]4C(C)C)C3c3cccc([N+](=O)[O-])c3)CC2)c1 (single isomer, unassigned) [Beispiel 15, 1,4-Dihydro-2,6-dimethyl-4-(3-nitrophenyl)-pyridin-3,5-dicarbonsäure-3-(-)-menthyl-5-{3-[4-(3-methoxyphenyl)-1-piperazinyl]-propyl}-ester-fumarat] | – | – | – | -14% | -7% | -4% | – |
